Here are results for 5 compounds from paper PMC6742494 (ACS infectious diseases, 2016).

The structures appear in SMILES notation. ≈ marks a conversion by molar mass, not a printed value. Where “and” joins values, the source holds several entries; their conditions need not be identical. Identical values can stand only once.

In one experiment the test system is Mtb T 27 (INH-resistant). Briefly: microbe, parasite or virus in culture. Conditions: Mycobacterium tuberculosis. The experiment is classed as cell-based.
Experiment [1] relates to Mtb Beijing 22 (RIF-resistant). As to the kind of experiment: microbe, parasite or virus in culture. The experiment is classed as cell-based. Conditions: Mycobacterium tuberculosis.
The test system of experiment [2] is Mtb Haarlem 9 (RIF-resistant). Briefly: microbe, parasite or virus in culture. The experiment is classed as cell-based. The note with it: Mycobacterium tuberculosis.
Experiment [3] concerns Mtb H37Rv resistant isolates with mmpL3 mutations. The experiment is classed as cell-based, Mycobacterium tuberculosis.

For the compound `FC(F)(F)Oc1ccc(Oc2ccc(CNCCNC3C4CC5CC(C4)CC3C5)cc2)cc1` (centres unmarked) [Compound 8, N^1-adamantan-2-yl-N^2-(4-(4-(trifluoro-methoxy)phenoxy)benzyl)ethane-1,2-diamine], the figures for the MIC (against Mtb T 27 (INH-resistant); in experiment [1]; in experiment [2]) were 0.58 µg/mL (≈ 1.26 µM), 1.2 µg/mL (≈ 2.61 µM) and 1.2 µg/mL (≈ 2.61 µM), respectively.

`CC[C@@H](CO)NCCN[C@@H](CC)CO` [EMB, ethambutol]: the MIC (against Mtb T 27 (INH-resistant); in experiment [1]; in experiment [2]) was 1 µg/mL (≈ 4.89 µM) in each case. The “susceptibility of DA5^R and TBL-140^R strains” value (from here on “susceptibility”) in experiment [3] is reported as “identical susceptibility as wild-type H37Rv”.

Regarding `NNC(=O)c1ccncc1` [INH, isoniazid], the MIC in the experiment on Mtb T 27 (INH-resistant) was greater than 0.8 µg/mL; in experiment [1], 0.025 µg/mL (≈ 0.182 µM); in experiment [2], 0.025 µg/mL (≈ 0.182 µM). Besides, the “susceptibility” value in experiment [3] was “identical susceptibility as wild-type H37Rv”.

As for `CO[C@H]1/C=C/O[C@@]2(C)Oc3c(C)c(O)c4c(O)c(c(/C=N/N5CCN(C)CC5)c(O)c4c3C2=O)NC(=O)/C(C)=C\C=C\[C@H](C)[C@H](O)[C@@H](C)[C@@H](O)[C@@H](C)[C@H](OC(C)=O)[C@@H]1C` [RIF, rifampicin], the MIC with Mtb T 27 (INH-resistant) came out at 0.0125 µg/mL (≈ 0.0152 µM). Besides, the “susceptibility” value in experiment [3] was “identical susceptibility as wild-type H37Rv”.

Regarding `CC(C)=CCC/C(C)=C/CNCCNC1C2CC3CC(C2)CC1C3` (centres unmarked) [SQ109], the MIC in experiment [3] is 6.25 µg/mL and 12.5 µg/mL.
